What was measured:
TAC mice = experiment: Hemodynamics in mouse model of heart failure (TAC); format: in vivo; conditions: for ESPVR slope: baseline 3.1; for Tau(1/2): baseline 7.7; for Pmax: baseline 111.1; for HR: baseline 422.1; for +dP/dt Max: baseline 4738.7; for index of contractility ESPVR, dose dependence: infusion of increasing doses
Protocol: Hemodynamics were measured to evaluate the acute effect of Example 1 infusion on the cardiac function of the mouse model of HF. In the first set of experiments, mice were exposed to pressure overload by thoracic aortic constriction (TAC) or sham operation and received either EXAMPLE 1 or vehicle. At two months post-TAC animals developed HF. […] In addition, the positive chronotropic effect of dobutamine was no longer observed in TAC mice (FIG. 9). Following cannulation of the carotid artery and external jugular vein, infusion of EXAMPLE 1 or vehicle was performed as described in Method section. Pressure and conductance catheters were introduced in the LV through the carotid artery. Pressure and volume measurements were made simultaneously and pressure volume curves were constructed as the vehicle or EXAMPLE 1 were infused.
Hemodynamic data were obtained in 1 mg of EXAMPLE 1-treated failing hearts at 30 min and 60 min after compound treatment. […] The improvement occurred within 30 minutes after treatment and maintained for 60 minutes after treatment. […] The effects of EXAMPLE 1 on various hemodynamic parameters are shown in FIG. 9b and Table S1. dP/dt max increased with increasing concentration of EXAMPLE 1 while Tau a parameter of relaxation decreased an indication of enhanced relaxation.
A model of heart failure was created by transaortic constriction in the mouse for 6-8 weeks. Following cannulation of the carotid artery and external jugular vein, infusion of Example 1 or vehicle was performed as shown in the protocol in FIG. 16. Pressure and conductance catheters were introduced in the left ventricle through the carotid artery. Pressure and volume measurements were made simultaneously and pressure volume curves were constructed as the vehicle or Example 1 was infused.

Serca2 KO mice = experiment: Hemodynamics in Serca2 knockout mice; format: in vivo, mouse; conditions: before vs after infusion
Description: Adult mice with an inducible cardiomyocyte-specific excision of the Atp2a2 (Serca2) gene (Serca2 KO) were used. Four weeks after induction of Serca2 gene excision, the mice display a substantial reduction in systolic and diastolic function (FIG. 11a). […] The decay constant, tau value was nearly 1.3-fold (Serca2 KO, […]; WT, […], p<0.001) larger in Serca2 KO mice compared with WT control (FIG. 11b). The expression of SERCA2a was completely lacking in Serca2 KO mice (FIG. 11c).
Hemodynamic parameters obtained before and after infusion of Example 1 were compared. […] The dose-dependent enhancement of cardiac contractility disappeared in Serca2 KO mice (FIG. 6b).

NCI-60 human tumor cell = NCI-60 human tumor cell screen; format: cell-based; conditions: NCI-60 set
Protocol: The NCI-60 human tumor cell screen used by the National Cancer Institute's Developmental Therapeutics Program was performed on Example 1. The NCI-60 set includes leukemia, lymphomas, and carcinomas of ovarian, renal, breast, prostate, colon, lung and CNS origin.

[1] = test system: Yorkshire pigs with severe heart failure; experiment: Contractility in Yorkshire pigs with severe heart failure secondary to myocardial infarction; format: in vivo, pig; conditions: 5 mg/kg, intracoronary
Protocol: Example 1 was dosed in Yorkshire pigs at 5 mg/kg with severe heart failure secondary to myocardial infarction.
The experimental protocols complied with the National Institutes of Health Guide for the Care and Use of Laboratory Animals and standards of United States regulatory agencies. They were approved by the Institutional Animal Care and Use Committee of the Mount Sinai School of Medicine. Yorkshire pigs were pre-medicated using intramuscular Telazol™ (8.0 mg/kg; tiletamine hydrochloride and zolazepam hydrochloride; Fort Dodge Animal Health, Fort Dodge, Iowa). After the placement of an intravenous line, animals were intubated and ventilated with 100% oxygen. General anesthesia was maintained with intravenous propofol (8-10 mg/kg/hr) throughout the procedure.
The animals underwent a 2-hour balloon occlusion of the proximal LAD (left anterior descending coronary artery) followed by reperfusion. Ten minutes before MI creation a continuous infusion of 20 mEq potassium acetate, 75 mg amiodarone, and 2 mg atropine was initiated to reduce ischemia related arrhythmia. […] Arterial pressure, blood oxygen saturation (SpO2), and electrocardiogram were monitored closely throughout the procedure. […]
Cardiac performance was evaluated at one month after MI. […] Cardiac function was monitored and recorded for 3 hours after injection.

[2] = failing hearts, 1 mg, 30 min and 60 min after treatment

`COc1ccc(-c2nnc(Nc3nc4c(OC)cccc4s3)o2)cc1` [Example 1, N-(4-methoxybenzo[d]thiazol-2-yl)-5-(4-methoxyphenyl)-1,3,4-oxadiazol-2-amine] was tested, and the “Tau (parameter of relaxation) with increasing concentration” value (TAC mice; TAC mice) was “decreased”, the “dP/dt max with increasing concentration” value (TAC mice; TAC mice) was “increased” and the ESPVR slope (TAC mice; TAC mice, 0.1 mg/kg) was 9.0 mmHg/A. For the same molecule, the “Tau(1/2)” value (TAC mice; TAC mice, 0.1 mg/kg) was 7.5 ms, the Pmax (TAC mice; TAC mice, 0.1 mg/kg) was 115.1 mmHg and the HR (TAC mice; TAC mice, 0.1 mg/kg) was 417.1 bpm. For the same molecule, the “+dP/dt Max” value (TAC mice; TAC mice, 0.1 mg/kg) was 4803.3 mmHg/sec, the ESPVR slope (TAC mice; TAC mice, 1.0 mg/kg) was 11.2 mmHg/A and the “Tau(1/2)” value (TAC mice; TAC mice, 1.0 mg/kg) was 6.4 ms. The Pmax (TAC mice; TAC mice, 1.0 mg/kg) was 123.6 mmHg, the HR (TAC mice; TAC mice, 1.0 mg/kg) was 422.3 bpm and the “+dP/dt Max” value (TAC mice; TAC mice, 1.0 mg/kg) was 5448.8 mmHg/sec. For the same molecule, the ESPVR slope (TAC mice; TAC mice, 10 mg/kg) was 20.3 mmHg/A, the “Tau(1/2)” value (TAC mice; TAC mice, 10 mg/kg) was 6.2 ± 0.4 ms and the Pmax (TAC mice; TAC mice, 10 mg/kg) was 124.5 mmHg. The HR (TAC mice; TAC mice, 10 mg/kg) was 455.1 bpm, the “+dP/dt Max” value (TAC mice; TAC mice, 10 mg/kg) was 6229.4 mmHg/sec and the “index of contractility ESPVR, dose dependence” value (TAC mice; TAC mice) was “increase in the index of contractility ESPVR in a dose dependent fashion”. The “index of contractility ESPVR, dose dependence” value (TAC mice; TAC mice, listed as EXAMPLE 1) was “increase in the index of contractility, ESPVR in a dose dependent manner”, the “time the improvement was maintained after treatment” value (TAC mice; failing hearts, 1 mg) was 60 min and the “time to improvement after treatment” value (TAC mice; failing hearts, 1 mg) was no more than 30 min. For the same molecule, the “end systolic pressure-volume relationship (ESPVR) in the LV versus baseline” value (TAC mice; [2]) was “significantly steeper”, the “rate of LV pressure rise (dP/dt max) versus baseline” value (TAC mice; [2]) was “increased cardiac contractility” and the “hemodynamic parameters in Serca2 KO mice” value (Serca2 KO mice) was “did not induce any improvements”. The “cancer cell growth and proliferation” value (NCI-60 human tumor cell) was “did not induce cancer cell growth and proliferation” and the “increase in contractility (as measured by dP/dt)” value [1] was 25-30%.

Source: patent US10501453B2, “Benzothiazole or benzoxazole compounds as SUMO activators” (Icahn School of Medicine at Mount Sinai, priority 2012, dated 2019)
